Test system: sugar cane seedlings
Assay: Growth of sugar cane seedlings treated in the greenhouse, then transplanted to the field
Type: in vivo
From the text: On an area of 0.1 hectares where sugar cane plants were growing with a distance between the rows of approximately 1.5 m, the top part of the 8 months old sugar cane plants was removed by chopping off with a machete in a height of approximately 2-2.5 m. The removed top part was discarded. After 30 days, on the below, remaining stalks, shoots (“1st generation”) had developed from the buds. The top parts (approximately 30 cm) of these shoots were removed by cutting. New shoots (“2nd generation”) developed from the cut shoots of the 1st generation. 30 days after cutting the top part of the 1st generation shoots, the 2nd generation shoots were removed by cutting them off closely to the nodes. On average, every node had produced three 2nd generation shoots. The removed 2nd generation shoots were each placed in pots filled with humid coconut fibers. The pots were placed in a greenhouse, and seedlings were grown from the planted shoots at 25-35° C. and 70-80% humidity. While in the greenhouse, the shoots/seedlings were watered sufficiently. One part of the seedlings was treated once with pyraclostrobin (in form of the commercial product Comet®; EC; 250 g/l) by immersing the entire tray containing the planted shoots for 10 min into a solution containing 4 ml of Comet® concentrate per l; i.e. 1 g pyraclostrobin per l. Another part of the seedlings remained untreated (control). 30 to 45 days after having been placed in the greenhouse, the surviving seedlings were transferred to an acclimatization area and kept for 15 days. Then they were counted and transplanted to a field. In sum 96,000 seedlings had been obtained. This number was sufficient for planting an area of 6.4 hectares with the same distance between the rows and the plants in the rows as in the originating field. […] 20 days after transplanting, the plant height of the treated and untreated plants was determined.

COC(=O)N(OC)c1ccccc1COc1ccn(-c2ccc(Cl)cc2)n1 [pyraclostrobin]
Plant height (1 g a.i./l, planted shoots immersed once for 10 min, height determined 20 days after transplanting to the field): 38.3 cm | colour and vigour of the seedlings / young plants (treated once while in the greenhouse, 1 g pyraclostrobin per l, compared with untreated seedlings): more intense, greener color and were more vigorous | increase in plant height (versus untreated control, 1 g pyraclostrobin per l, 20 days after transplanting): more than 30%

Reference: patent US9271448B2, “Method for cultivating sugar cane” (BASF SE, priority 2010, dated 2016)
